Experimental data taken from US20240350493A1 (Kadmon Corporation, LLC, priority 2022, published 2024).
Converted amounts (≈) assume the structure as drawn. “Also recorded” adds a separate entry of the source. Like-named read-outs stand apart in the source and are kept apart here. Marks after values point to notes of the source that are not given here.

Legend:
CYP1A2 = CYP1A2 (Homo sapiens, UniProt P05177); test: enzyme inhibition, in vitro; assay type: in vitro ADME
CYP3A4 = CYP3A4 (Homo sapiens, UniProt P08684); test: incubations with recombinant enzymes; assay type: in vitro ADME
pH-dependent solubility = assay type: physicochemical
rats = test: combined male and female rat fertility study; assay type: in vivo
Description: In a combined male and female rat fertility study, belumosudil-treated male animals were mated with untreated females, or untreated males were mated with belumosudil-treated females.

[1] = test system: human peripheral blood lymphocytes (HPBL); test: in vitro chromosome aberration assay; assay type: cell-based
CYP2C19 = CYP2C19 (Homo sapiens, UniProt P33261); test: enzyme inhibition, in vitro; assay type: in vitro ADME
CYP2D6 = CYP2D6 (Homo sapiens, UniProt P10635); test: enzyme inhibition, in vitro; assay type: in vitro ADME
[2] = phase I two-part drug-drug interaction study, plasma pharmacokinetics (Example 1); assay type: in vivo, human; conditions: for Cmax / Tmax / AUC from 0 to 24 h / AUC(0-inf) / AUC(0-t) / half-life: male, human, plasma, oral; for Tmax: read-out: Tmax, median (range)
Description: The secondary objective was to provide additional information on the safety and tolerability of this dose regimen in healthy males.
This was a single center, non-randomized, DDI study in 35 (Part 1) and 38 (Part 2) healthy males. The key inclusion criterion was males aged 18 to 55 years (inclusive). […] In Part 2, co-administration with omeprazole was studied. The study design is illustrated in FIG. 1.
At least a 2-to 8-day washout occurred between each period to account for a minimum of 5 half-lives of the active moieties dosed in the preceding period.
Blood samples were collected into 6 mL K,EDTA tubes and were processed within 30 minutes of collection. The resultant plasma was then frozen within 90 minutes of collection and stored at […] until shipment to the bioanalytical laboratory.
For each comparison, PK parameters were natural log transformed and analyzed using mixed effect modeling with treatment included as a fixed effect and subject as a random effect. Adjusted geometric mean ratios (GMRs) and corresponding 90% CIs were calculated.

[3] = 200 mg belumosudil single dose + itraconazole
[4] = 200 mg belumosudil single dose + rabeprazole
[5] = 200 mg belumosudil single dose + rifampicin
[6] = 200 mg belumosudil single dose alone
[7] = coadministration of rabeprazole

Sequence of CYP1A2 (P05177 whole entry): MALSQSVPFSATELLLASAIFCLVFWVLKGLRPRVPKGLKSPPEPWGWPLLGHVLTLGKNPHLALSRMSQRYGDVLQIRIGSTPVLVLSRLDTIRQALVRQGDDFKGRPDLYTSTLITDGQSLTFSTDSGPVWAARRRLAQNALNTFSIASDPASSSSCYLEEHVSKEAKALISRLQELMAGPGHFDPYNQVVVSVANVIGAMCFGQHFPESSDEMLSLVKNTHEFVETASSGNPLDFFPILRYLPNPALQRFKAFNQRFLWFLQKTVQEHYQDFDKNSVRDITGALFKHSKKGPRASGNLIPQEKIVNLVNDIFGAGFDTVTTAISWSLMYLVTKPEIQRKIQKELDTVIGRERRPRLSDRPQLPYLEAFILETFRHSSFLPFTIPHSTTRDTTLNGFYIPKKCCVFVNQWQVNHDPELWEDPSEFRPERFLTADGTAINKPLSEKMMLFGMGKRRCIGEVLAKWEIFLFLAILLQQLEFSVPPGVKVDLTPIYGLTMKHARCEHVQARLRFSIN
Sequence of CYP3A4 (P08684 whole entry): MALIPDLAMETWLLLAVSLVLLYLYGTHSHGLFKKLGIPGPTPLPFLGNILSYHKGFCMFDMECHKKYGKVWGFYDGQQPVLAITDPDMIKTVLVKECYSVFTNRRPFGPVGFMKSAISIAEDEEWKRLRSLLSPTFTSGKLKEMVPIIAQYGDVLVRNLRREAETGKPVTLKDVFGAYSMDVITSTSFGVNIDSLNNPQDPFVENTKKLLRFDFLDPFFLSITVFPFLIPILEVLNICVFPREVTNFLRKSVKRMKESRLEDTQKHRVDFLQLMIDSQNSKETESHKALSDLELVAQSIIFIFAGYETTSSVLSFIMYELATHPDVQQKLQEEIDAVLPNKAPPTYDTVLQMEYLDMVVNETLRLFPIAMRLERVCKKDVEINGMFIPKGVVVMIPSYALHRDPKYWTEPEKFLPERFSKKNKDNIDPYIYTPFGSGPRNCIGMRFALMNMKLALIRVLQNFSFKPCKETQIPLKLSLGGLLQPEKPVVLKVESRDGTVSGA
Sequence of CYP2C19 (P33261 whole entry): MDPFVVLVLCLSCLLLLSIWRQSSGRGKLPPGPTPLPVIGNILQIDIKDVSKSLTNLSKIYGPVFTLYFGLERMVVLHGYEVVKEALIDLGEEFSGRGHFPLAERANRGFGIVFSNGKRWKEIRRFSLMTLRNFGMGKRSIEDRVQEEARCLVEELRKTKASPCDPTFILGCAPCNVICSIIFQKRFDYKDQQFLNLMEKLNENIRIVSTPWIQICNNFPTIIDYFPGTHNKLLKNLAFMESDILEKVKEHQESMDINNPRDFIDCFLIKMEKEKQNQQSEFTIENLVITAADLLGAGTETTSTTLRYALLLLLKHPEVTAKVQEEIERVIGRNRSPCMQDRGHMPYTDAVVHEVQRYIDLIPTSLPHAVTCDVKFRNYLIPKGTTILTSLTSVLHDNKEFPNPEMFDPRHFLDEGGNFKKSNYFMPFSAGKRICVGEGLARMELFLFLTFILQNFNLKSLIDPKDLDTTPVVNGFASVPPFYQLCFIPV
Sequence of CYP2D6 (P10635 whole entry): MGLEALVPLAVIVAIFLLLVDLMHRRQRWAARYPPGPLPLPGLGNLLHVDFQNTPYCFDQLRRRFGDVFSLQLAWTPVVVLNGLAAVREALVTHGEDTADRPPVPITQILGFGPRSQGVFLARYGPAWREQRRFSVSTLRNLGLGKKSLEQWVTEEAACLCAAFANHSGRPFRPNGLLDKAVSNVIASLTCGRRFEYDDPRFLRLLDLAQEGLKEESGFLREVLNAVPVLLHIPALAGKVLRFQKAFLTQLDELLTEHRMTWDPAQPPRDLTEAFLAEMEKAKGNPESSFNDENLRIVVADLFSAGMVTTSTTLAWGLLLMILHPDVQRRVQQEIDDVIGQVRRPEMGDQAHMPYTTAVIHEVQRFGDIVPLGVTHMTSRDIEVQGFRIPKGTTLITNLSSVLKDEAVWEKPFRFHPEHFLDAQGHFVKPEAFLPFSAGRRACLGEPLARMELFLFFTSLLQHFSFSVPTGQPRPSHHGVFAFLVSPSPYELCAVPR

CC(C)NC(=O)COc1cccc(-c2nc(Nc3ccc4[nH]ncc4c3)c3ccccc3n2)c1 [Belumosudil, 2-{3-[4-(1H-indazol-5-ylamino)-2-quinazolinyl]phenoxy}-N-(propan-2-yl) acetamide]
CYP1A2 inhibition (CYP1A2): inhibitor
share of belumosudil metabolism (CYP3A4): 41.9%
solubility (pH-dependent solubility; pH 1.08, simulated gastric fluid): 11 µg/mL (≈ 24.3 µM)
solubility (pH-dependent solubility; pH 1.6, simulated gastric fluid): 1640 µg/mL (≈ 3630 µM)
solubility (pH-dependent solubility; pH 6.5, aqueous buffer): 3 µg/mL (≈ 6.63 µM)
solubility (pH-dependent solubility; simulated gastric fluid, pH 2.0): 1430 µg/mL (≈ 3170 µM)
dose with increased pre-or post-implantation loss and decreased number of viable embryos (rats; female rats, treated or mated with treated males): 275 mg/kg/day
dose with abnormal sperm findings and testes/epididymis organ changes (rats; male rats): 275 mg/kg/day
dose with reduced fertility (rats; treated males or females): 275 mg/kg/day
genotoxicity [1]: not genotoxic
CYP2C19 inhibition (CYP2C19): inhibitor
CYP2D6 inhibition (CYP2D6): inhibitor
CL/F, arithmetic mean (SD) [2, 3]: 318 (117) ^b mL/min
CL/F, geometric mean (geometric CV %) [2, 3]: 298 (38.1) ^b; mL/min
CL/F, arithmetic mean (SD) [2, 4]: 2480 (2410) ^d mL/min
CL/F, geometric mean (geometric CV %) [2, 4]: 1980 (65.8) ^d; mL/min
CL/F, arithmetic mean (SD) [2, 5]: 1400 (450) ^c mL/min
CL/F, geometric mean (geometric CV %) [2, 5]: 1330 (34.5) ^c; mL/min
CL/F, arithmetic mean (SD) [2, 6]: 385 (116) ^a mL/min
CL/F, geometric mean (geometric CV %) [2, 6]: 367 (33.3) ^a; mL/min
change in belumosudil exposure ([2]; coadministration of itraconazole): no clinically meaningful effect; also recorded: No clinically relevant change
decrease in AUC0-24 vs belumosudil alone ([2]; coadministration of omeprazole): 53%
decrease in AUC vs belumosudil alone ([2]; coadministration of omeprazole): 47%
decrease in Cmax (first dose) vs belumosudil alone ([2]; coadministration of omeprazole): 68%
decrease in AUC vs belumosudil alone [2, 7]: 80%
decrease in AUCinf vs belumosudil alone [2, 7]: ~80%
decrease in AUClast vs belumosudil alone [2, 7]: ~82%
decrease in AUCinf vs belumosudil alone ([2]; coadministration of rifampicin): ~72%
decrease in AUClast vs belumosudil alone ([2]; coadministration of rifampicin): ~72%
decrease in AUC vs belumosudil alone ([2]; coadministration of rifampin): 72%
Cmax ([2]; 200 mg belumosudil BID + omeprazole, first dose, read-out: Cmax, arithmetic mean (SD)): 893 ng/mL
Cmax ([2]; 200 mg belumosudil BID + omeprazole, first dose, read-out: Cmax, geometric mean (geometric CV %)): 575 ng/mL
Tmax ([2]; 200 mg belumosudil BID + omeprazole, first dose): 4 h
Cmax ([2]; 200 mg belumosudil BID + omeprazole, second dose, read-out: Cmax, arithmetic mean (SD)): 1050 ng/mL
Cmax ([2]; 200 mg belumosudil BID + omeprazole, second dose, read-out: Cmax, geometric mean (geometric CV %)): 903 ng/mL
Tmax ([2]; 200 mg belumosudil BID + omeprazole, second dose): 17 h
AUC from 0 to 24 h ([2]; 200 mg belumosudil BID + omeprazole, read-out: AUC0-24, arithmetic mean (SD)): 9100 ng·h/mL
AUC from 0 to 24 h ([2]; 200 mg belumosudil BID + omeprazole, read-out: AUC0-24, geometric mean (geometric CV %)): 7970 ng·h/mL
AUC(0-inf) ([2]; 200 mg belumosudil BID + omeprazole, read-out: AUCinf, arithmetic mean (SD)): 11200 ng·h/mL
AUC(0-inf) ([2]; 200 mg belumosudil BID + omeprazole, read-out: AUCinf, geometric mean (geometric CV %)): 9880 ng·h/mL
AUC(0-t) ([2]; 200 mg belumosudil BID + omeprazole, read-out: AUClast, arithmetic mean (SD)): 10900 ng·h/mL
AUC(0-t) ([2]; 200 mg belumosudil BID + omeprazole, read-out: AUClast, geometric mean (geometric CV %)): 9680 ng·h/mL
half-life ([2]; 200 mg belumosudil BID + omeprazole, read-out: t1/2, arithmetic mean (SD) (converted)): 6.55 h
half-life ([2]; 200 mg belumosudil BID + omeprazole, read-out: t1/2, geometric mean (geometric CV %) (converted)): 6.16 h
AUC from 0 to 24 h ([2]; 200 mg belumosudil single dose + itraconazole, read-out: AUC0-24, arithmetic mean (SD)): 11000 ng·h/mL
AUC from 0 to 24 h ([2]; 200 mg belumosudil single dose + itraconazole, read-out: AUC0-24, geometric mean (geometric CV %)): 10400 ng·h/mL
AUC(0-inf) ([2]; 200 mg belumosudil single dose + itraconazole, read-out: AUCinf, arithmetic mean (SD)): 11900 ng·h/mL
AUC(0-inf) ([2]; 200 mg belumosudil single dose + itraconazole, read-out: AUCinf, geometric mean (geometric CV %)): 11200 ng·h/mL
AUC(0-t) ([2]; 200 mg belumosudil single dose + itraconazole, read-out: AUClast, arithmetic mean (SD)): 11600 ng·h/mL
AUC(0-t) ([2]; 200 mg belumosudil single dose + itraconazole, read-out: AUClast, geometric mean (geometric CV %)): 10900 ng·h/mL
Cmax ([2]; 200 mg belumosudil single dose + itraconazole, read-out: Cmax, arithmetic mean (SD)): 2230 ng/mL
Cmax ([2]; 200 mg belumosudil single dose + itraconazole, read-out: Cmax, geometric mean (geometric CV %)): 2130 ng/mL
Tmax [2, 3]: 3 h
